From ChEMBL document CHEMBL4619744, “Evaluation of nitrocatechol chalcone and pyrazoline derivatives as inhibitors of catechol-O-methyltransferase and monoamine oxidase” (Bioorg Med Chem Lett, 2020)
pIC50: −log10 of the molar value.

Key:
[1] = molecular target: T1, Amine oxidase [flavin-containing] A (Homo sapiens, UniProt P21397); test: Inhibition of recombinant human MAOA using kynuramine as substrate by fluorescence based assay
T1 sequence (P21397 whole entry): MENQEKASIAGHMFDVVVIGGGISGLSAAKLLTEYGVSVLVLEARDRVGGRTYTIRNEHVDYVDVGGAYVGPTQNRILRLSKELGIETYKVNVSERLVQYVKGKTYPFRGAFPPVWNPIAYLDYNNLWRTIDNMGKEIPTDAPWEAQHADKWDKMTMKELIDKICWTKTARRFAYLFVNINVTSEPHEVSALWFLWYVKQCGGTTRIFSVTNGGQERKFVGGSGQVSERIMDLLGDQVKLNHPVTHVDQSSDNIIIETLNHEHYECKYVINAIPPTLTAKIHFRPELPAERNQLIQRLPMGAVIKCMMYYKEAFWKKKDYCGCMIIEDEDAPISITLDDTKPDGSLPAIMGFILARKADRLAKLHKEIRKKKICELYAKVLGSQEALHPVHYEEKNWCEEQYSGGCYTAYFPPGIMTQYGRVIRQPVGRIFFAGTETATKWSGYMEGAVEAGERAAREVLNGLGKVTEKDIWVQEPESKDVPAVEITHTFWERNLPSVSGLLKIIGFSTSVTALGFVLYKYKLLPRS

[2] = molecular target: T2, Amine oxidase [flavin-containing] B (Homo sapiens, UniProt P27338); test: Inhibition of recombinant human MAOB using kynuramine as substrate by fluorescence based assay
T2 sequence (P27338 whole entry): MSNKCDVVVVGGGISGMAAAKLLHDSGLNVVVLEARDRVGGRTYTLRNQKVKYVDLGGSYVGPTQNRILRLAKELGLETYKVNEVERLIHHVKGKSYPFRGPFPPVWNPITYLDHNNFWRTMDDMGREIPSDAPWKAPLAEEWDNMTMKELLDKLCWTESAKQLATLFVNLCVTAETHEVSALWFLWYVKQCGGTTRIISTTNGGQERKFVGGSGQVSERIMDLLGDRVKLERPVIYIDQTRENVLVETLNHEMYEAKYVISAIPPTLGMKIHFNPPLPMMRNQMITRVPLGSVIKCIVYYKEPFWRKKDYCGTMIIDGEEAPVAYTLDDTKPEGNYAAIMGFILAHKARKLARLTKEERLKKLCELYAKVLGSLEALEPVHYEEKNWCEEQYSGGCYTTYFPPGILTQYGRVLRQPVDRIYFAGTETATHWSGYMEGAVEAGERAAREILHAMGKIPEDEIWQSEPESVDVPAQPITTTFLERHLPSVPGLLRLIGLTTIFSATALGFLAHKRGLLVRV

[3] = molecular target: T3, Catechol O-methyltransferase (Rattus norvegicus, UniProt P22734); test: Inhibition of rat liver COMT using esculetin as substrate by fluorescence based spectrophotometry
T3 sequence (P22734 whole entry): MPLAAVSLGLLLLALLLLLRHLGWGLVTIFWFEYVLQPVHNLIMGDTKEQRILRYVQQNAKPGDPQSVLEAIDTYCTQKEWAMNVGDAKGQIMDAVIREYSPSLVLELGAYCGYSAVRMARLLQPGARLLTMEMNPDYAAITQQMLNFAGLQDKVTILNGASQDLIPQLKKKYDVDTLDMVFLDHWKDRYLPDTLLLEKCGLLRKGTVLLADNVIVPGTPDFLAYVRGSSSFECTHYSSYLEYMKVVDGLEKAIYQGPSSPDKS

[4] = molecular target: T2, Amine oxidase [flavin-containing] B; test: Inhibition of recombinant human MAOB expressed in insect cells measured after 20 mins by fluorescence spectrophotometry
[5] = molecular target: T1, Amine oxidase [flavin-containing] A; test: Inhibition of recombinant human MAOA expressed in insect cells measured after 20 mins by fluorescence spectrophotometry
[6] = molecular target: T4, Catechol O-methyltransferase (Homo sapiens, UniProt P21964); test: Inhibition of COMT (unknown origin)
T4 sequence (P21964 whole entry): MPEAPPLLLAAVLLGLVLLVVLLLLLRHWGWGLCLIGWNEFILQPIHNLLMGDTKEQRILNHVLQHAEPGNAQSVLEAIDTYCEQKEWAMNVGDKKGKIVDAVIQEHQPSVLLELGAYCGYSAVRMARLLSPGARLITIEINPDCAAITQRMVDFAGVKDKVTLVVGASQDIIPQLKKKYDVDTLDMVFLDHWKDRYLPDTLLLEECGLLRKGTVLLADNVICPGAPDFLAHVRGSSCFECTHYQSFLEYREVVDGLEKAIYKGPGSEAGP

[7] = molecular target: T5, Catechol O-methyltransferase (Rattus norvegicus) (UniProt P22734); test: Potency index, ratio of IC50 of 1-(3,4-dihydroxy-5-nitro-phenyl)-3-(3-methoxyphenyl)prop-2-en-1-one to IC50 of compound for inhibition of rat liver COMT using esculetin as substrate by fluorescence based spectrophotometry
T5 sequence (whole entry): T3 sequence (P22734 whole entry)

Row | pIC50 [1] | pIC50 [2] | pIC50 [3] | pIC50 [4] | pIC50 [5] | pIC50 [6] | Ratio IC50 [7] | SMILES
1 | 4.15 | 4.26 | 7.10 | – | – | – | – | CC(=O)N1N=C(c2cc(O)c(O)c([N+](=O)[O-])c2)CC1c1cccc(C#N)c1 (centres undefined)
2 | 4.29 | 4.18 | 6.54 | – | – | – | – | Cn1cc(/C=C/C(=O)c2cc(O)c(O)c([N+](=O)[O-])c2)cn1
3 | – | – | – | 4.86 | 4.12 | 6.54 | – | O=C(/C=C/c1cccc(Br)c1)c1cc(O)c(O)c([N+](=O)[O-])c1
4 | 4.34 | 4.25 | 6.74 | – | – | – | – | N#Cc1ccc(/C=C/C(=O)c2cc(O)c(O)c([N+](=O)[O-])c2)cc1
5 | 4.30 | 4.20 | 6.72 | – | – | – | – | O=C(/C=C/c1cccs1)c1cc(O)c(O)c([N+](=O)[O-])c1
6 | 4.04 | 3.90 | 6.74 | – | – | – | – | CC(=O)N1N=C(c2cc(O)c(O)c([N+](=O)[O-])c2)CC1c1ccoc1 (centres undefined)
7 | 4.12 | 4.08 | 7.32 | – | – | – | 1.46 | CC(=O)N1N=C(c2cc(O)c(O)c([N+](=O)[O-])c2)CC1c1ccc(C#N)cc1 (centres undefined)
8 | 4.07 | 4.17 | 6.80 | – | – | – | – | CC(=O)N1N=C(c2cc(O)c(O)c([N+](=O)[O-])c2)CC1c1nccs1 (centres undefined)
9 | 4.38 | 4.38 | 6.64 | – | – | – | – | O=C(/C=C/c1ccsc1)c1cc(O)c(O)c([N+](=O)[O-])c1
10 | 4.28 | 4.15 | 6.54 | – | – | – | – | O=C(/C=C/c1ccoc1)c1cc(O)c(O)c([N+](=O)[O-])c1
11 | 4.22 | 4.17 | 6.64 | – | – | – | – | O=C(/C=C/c1ccco1)c1cc(O)c(O)c([N+](=O)[O-])c1
12 | 4.36 | 4.25 | 6.85 | – | – | – | – | O=C(/C=C/c1cccc(O)c1)c1cc(O)c(O)c([N+](=O)[O-])c1
13 | 4.06 | 4.07 | 7.12 | – | – | – | – | CC(=O)N1N=C(c2cc(O)c(O)c([N+](=O)[O-])c2)CC1c1cccc(O)c1 (centres undefined)
14 | 4.16 | 4.23 | 6.62 | – | – | – | – | O=C(/C=C/c1nccs1)c1cc(O)c(O)c([N+](=O)[O-])c1
15 | 4.06 | 4.16 | 6.68 | – | – | – | – | CC(=O)N1N=C(c2cc(O)c(O)c([N+](=O)[O-])c2)CC1c1cccs1 (centres undefined)
16 | 4.01 | 4.11 | 6.74 | – | – | – | – | CC(=O)N1N=C(c2cc(O)c(O)c([N+](=O)[O-])c2)CC1c1ccco1 (centres undefined)
17 | – | – | – | – | 4.17 | 7.15 | – | COc1cccc(/C=C/C(=O)c2cc(O)c(O)c([N+](=O)[O-])c2)c1
18 | 4.23 | 4.22 | 6.62 | – | – | – | – | N#Cc1cccc(/C=C/C(=O)c2cc(O)c(O)c([N+](=O)[O-])c2)c1
